Measured values reported in patent US20260083708A1, “IL-17 MODULATORS AND USES THEREOF” (NNOCARE PHARMA INC., priority 2024, published 2026).

Assays:
[1] = tested on: rat collagen induced arthritis (CIA) model; test: In vivo efficacy study in rat collagen induced arthritis (CIA) model; details: female Lewis rats, 20 mg/kg PO once a day, 14 days
Description: Example 45. In Vivo Efficacy Study in Rat Collagen Induced Arthritis (CIA) Model
Bovine type II collagen solution (Chondrex) was emulsified with an equal volume of incomplete Freund's adjuvant (IFA, Sigma) to achieve an emulsion with a collagen concentration of 1 mg/mL. Female Lewis rats were immunized with the emulsion (200 μL per rat) through subcutaneous injection at the base of tail. After seven days from the initial immunization, rats received a booster injection of the emulsion (100 μL per rat). Each paw of the rat was evaluated and scored on a 0-4 scale based on arthritis severity, and the arthritis score of each rat was the sum of scores from four paws. When the arthritis scores reached 2-3, rats were randomized into four groups and dosed once a day via oral gavage (PO) with vehicle, compounds 35, 49 and 66 for 14 days, respectively. The arthritis score was assessed every other day. Efficacy was calculated by [1−(T14−T0)/(V14−V0)]×100%, where T14 and V14 are the average arthritis scores of the treatment group and the vehicle group on Day 14 of measurement, respectively, while T0 and V0 are the average arthritis scores of the treatment group and the vehicle group on Day 0, respectively. Statistical significance of difference in arthritis scores between the treatment and vehicle groups was analyzed using one-way ANOVA followed by Dunnett's test, and P<0.05 was considered statistically significant.

[2] = tested on: IL-17AA-induced IL-17 signaling pathway; test: Inhibition of IL-17AA-induced IL-17 signaling pathway in HEK-Blue IL-17 reporter cells (SEAP); assay type: cell-based; details: Homo sapiens; HEK-Blue IL-17 cells, IL-17AA 2.5 ng/mL, 20 hours; read-out: IC50 for Inhibiting IL-AA Signaling
How it was run: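 HEK-Blue IL-17 cells (HEK293 expressing human IL-17RA/RC, ACT1 and NF-κB/AP-1-driven SEAP), 10,000/well, pre-incubated with compound (serial dilution from 10 μM) for 1 h at 37 °C, then stimulated with IL-17AA at 2.5 ng/mL final for 20 h. SEAP in supernatant read with Quanti-Blue at 620 nm; IC50 by 4-parameter fit.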

[3] = tested on: IL-17AF-induced IL-17 signaling pathway; test: Inhibition of IL-17AF-induced IL-17 signaling pathway; assay type: cell-based; details: Homo sapiens; IL-17AF used instead of IL-17AA; read-out: IC50 for Inhibiting IL-AF Signaling
How it was run: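 HEK293-derived HEK-Blue IL-17 cells (IL-17RA/RC, ACT1, NF-κB/AP-1-driven SEAP) preincubated 1 hour at 37° C with serially diluted compound from 10 μM, then stimulated with IL-17AF for 20 hours. SEAP read colorimetrically at 620 nm; IC50 from 4-parameter fit of % inhibition.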

IL-17AA and IL-17RA = molecular target: T1, IL-17AA and IL-17RA (Homo sapiens, UniProt Q16552); test: Competitive inhibition of human IL-17AA and IL-17RA binding (HTRF); details: recombinant IL-17AA (His-tag) and IL-17RA (hFc-tag); read-out: IC50 for Inhibiting IL-AA/IL-RA Binding
T1 construct: purchased Sino Biological 12047-H07B (IL-17AA); 10895-H02H (IL-17RA)
T1 sequence (Q16552 24-155): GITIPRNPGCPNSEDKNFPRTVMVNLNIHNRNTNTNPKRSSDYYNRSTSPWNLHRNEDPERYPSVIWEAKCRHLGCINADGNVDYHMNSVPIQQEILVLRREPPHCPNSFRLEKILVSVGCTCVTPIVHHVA
How it was run: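 His-IL-17AA (1 nM) premixed 1 h with anti-His-Tb (0.4 nM), and Fc-IL-17RA (1 nM) with anti-IgG-d2 (1 μg/mL); these are pre-mix levels. Compounds, diluted from 10 μM, preincubated 2 h RT with IL-17AA mix; IL-17RA mix then added, 20 min. 665/615 ratio vs no-compound and no-IL-17AA controls; IC50 by 4-parameter fit.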

Row | IC50 [2] | IC50 [3] | IC50 (IL-17AA and IL-17RA) | Structure (SMILES) | suppression of arthritis disease progression (arthritis score) [1]
1 | 4.5 nM | 8.6 nM | 5.2 nM | [2H]C([2H])([2H])n1nccc1C(=O)N[C@H](C(=O)Nc1ccc([C@H](C)[C@@H](NC(=O)COC)c2ncnn2CC2CC2)cc1F)C(C1CC1)C1CC1 [Compound 35, N-((S)-1,1-dicyclopropyl-3-((4-((1R,2S)-1-(1-(cyclopropylmethyl)-1H-1,2,4-triazol-5-yl)-1-(2-methoxyacetamido)propan-2-yl)-2-fluorophenyl)amino)-3-oxopropan-2-yl)-1-(methyl-d3)-1H-pyrazole-5-carboxamide] | completely suppressed arthritis disease progression
2 | 1.8 nM | 2.6 nM | 2.2 nM | COCC(=O)N[C@@H](c1ncnn1CC1CC1)[C@@H](C)c1ccc(NC(=O)[C@@H](NC(=O)c2nonc2C)C(C2CC2)C2CC2)c(F)c1 [Compound 39, N-((S)-1,1-dicyclopropyl-3-((4-((1R,2S)-1-(1-(cyclopropylmethyl)-1H-1,2,4-triazol-5-yl)-1-(2-methoxyacetamido)propan-2-yl)-2-fluorophenyl)amino)-3-oxopropan-2-yl)-4-methyl-1,2,5-oxadiazole-3-carboxamide] | completely suppressed arthritis disease progression
3 | 3.3 nM | 8.4 nM | 1.1 nM | CCC(=O)N[C@@H](c1ncnn1CC1CC1)[C@@H](C)c1ccc(NC(=O)[C@@H](NC(=O)c2nonc2C)C(C2CC2)C2CC2)c(F)c1 [Compound 66, N-((S)-1,1-dicyclopropyl-3-((4-((1R,2S)-1-(1-(cyclopropylmethyl)-1H-1,2,4-triazol-5-yl)-1-propionamidopropan-2-yl)-2-fluorophenyl)amino)-3-oxopropan-2-yl)-4-methyl-1,2,5-oxadiazole-3-carboxamide] | completely suppressed arthritis disease progression
